Experiment [1] concerns the target EGFR (Epidermal Growth Factor Receptor 1) (Homo sapiens, UniProt P00533). The experiment in a line: ELISA protein tyrosine kinase inhibition, EGFR. It counts as biochemical. The settings on record: ELISA, Poly(Glu, Tyr) 4:1 substrate, ATP 5 μM, test samples at 10-5 mol/l; read-out: EGFR inhibitory activity (IC50 class). From the text:
(§1) Determining the Effect of Test Samples at a Concentration of 10-5 Mol/l on the Activity of the Substrate Phosphoryation Catalyzed by EGFR (Epidermal Growth Factor Receptor 1), ErbB-2 (Epidermal Growth Factor Receptor 2), ErbB-4, KDR (Vascular Endothelial Growth Factor Receptor 2) Protein Tyrosine Kinases at Molecular Level
(§2) Enzyme-Linked Immunosorbent Assay (ELISA)
(§3) Main instrument: wavelength-tunable microplate reader (VERSAmax).
(§4) Main reagents: kinase reaction substrate Poly(Glu, Tyr) 4:1 from Sigma; anti-phosphotyrosine monoclonal antibody PY99 from Santa Cruz; horseradish peroxidase-labeled goat anti-mouse IgG from Calbiochem; ATP, DTT, OPD from Amresco, and ELISA plate from Corning.
(§5) Poly(Glu, Tyr)4:1 as an enzyme substrate was diluted by potassium ion-free PBS into 20 μg/ml, and an ELISA plate was coated and subjected to reaction for 12-16 h at 37° C. After the liquid in wells was removed, the plate was washed three time by T-PBS, 5 min for each time. The ELISA plate was then dried in an oven at 37° C. The coated wells were added with the test samples: the test samples were prepared for a stock solution with a concentration of 1×10^−2M in DMSO. The aliquot solution was stored at −20° C., and diluted to the desired concentration with reaction buffer before use. The resulting solution was added into the wells so that the final concentration of 10-5 mol/l in 100 μL reaction system can be obtained. At the same time, a positive control well was set up and a positive control compound Su11248 was added. ATP and test tyrosine kinases were added: ATP solution diluted with reaction buffer was added (the final concentration of ATP is 5 μM). Finally, the test tyrosine kinases solution diluted with reaction buffer was added. The total volume of the reaction system was […]. Meanwhile, a negative control well and a control well without enzyme were set up. The reaction system was placed in a wet box, and shaked for 1 hour at 37° C., shielding from light. After the reaction was complete, the plate was washed by T-PBS three times. Antibody PY99 was added at 100 μL/well; and the plate was shaked for 30 min at 37° C. After the reaction was complete, the plate was washed with T-PBS three times. Horseradish peroxidase-labeled goat anti-mouse IgG was added at 100 μL/well, and the plate was shaked for 30 min at 37° C. The plate was washed with T-PBS three times. OPD developing liquid was added at 100 μL/well, and reacted for 1-10 min at room temperature, shielding from light. 50 μL of 2 M H2SO4 was added to stop the reaction. A492 value was determined using wavelength-tunable microplate reader. The inhibition ratio of the samples can be calculated by the following equation: […]
A general note: An ELISA detects its analyte on a solid surface through an enzyme-linked reagent.

The target in experiment [2] is ErbB-2 (Epidermal Growth Factor Receptor 2) (Homo sapiens, UniProt P04626). The experiment in a line: ELISA protein tyrosine kinase inhibition, ErbB-2. It counts as biochemical. The conditions noted are these: Poly(Glu, Tyr) 4:1 substrate, ATP 5 μM, test samples at 10-5 mol/l, read-out: ErbB2 inhibitory activity (IC50 class).
Chain of ErbB-2 (Epidermal Growth Factor Receptor 2) (P04626 23-1255): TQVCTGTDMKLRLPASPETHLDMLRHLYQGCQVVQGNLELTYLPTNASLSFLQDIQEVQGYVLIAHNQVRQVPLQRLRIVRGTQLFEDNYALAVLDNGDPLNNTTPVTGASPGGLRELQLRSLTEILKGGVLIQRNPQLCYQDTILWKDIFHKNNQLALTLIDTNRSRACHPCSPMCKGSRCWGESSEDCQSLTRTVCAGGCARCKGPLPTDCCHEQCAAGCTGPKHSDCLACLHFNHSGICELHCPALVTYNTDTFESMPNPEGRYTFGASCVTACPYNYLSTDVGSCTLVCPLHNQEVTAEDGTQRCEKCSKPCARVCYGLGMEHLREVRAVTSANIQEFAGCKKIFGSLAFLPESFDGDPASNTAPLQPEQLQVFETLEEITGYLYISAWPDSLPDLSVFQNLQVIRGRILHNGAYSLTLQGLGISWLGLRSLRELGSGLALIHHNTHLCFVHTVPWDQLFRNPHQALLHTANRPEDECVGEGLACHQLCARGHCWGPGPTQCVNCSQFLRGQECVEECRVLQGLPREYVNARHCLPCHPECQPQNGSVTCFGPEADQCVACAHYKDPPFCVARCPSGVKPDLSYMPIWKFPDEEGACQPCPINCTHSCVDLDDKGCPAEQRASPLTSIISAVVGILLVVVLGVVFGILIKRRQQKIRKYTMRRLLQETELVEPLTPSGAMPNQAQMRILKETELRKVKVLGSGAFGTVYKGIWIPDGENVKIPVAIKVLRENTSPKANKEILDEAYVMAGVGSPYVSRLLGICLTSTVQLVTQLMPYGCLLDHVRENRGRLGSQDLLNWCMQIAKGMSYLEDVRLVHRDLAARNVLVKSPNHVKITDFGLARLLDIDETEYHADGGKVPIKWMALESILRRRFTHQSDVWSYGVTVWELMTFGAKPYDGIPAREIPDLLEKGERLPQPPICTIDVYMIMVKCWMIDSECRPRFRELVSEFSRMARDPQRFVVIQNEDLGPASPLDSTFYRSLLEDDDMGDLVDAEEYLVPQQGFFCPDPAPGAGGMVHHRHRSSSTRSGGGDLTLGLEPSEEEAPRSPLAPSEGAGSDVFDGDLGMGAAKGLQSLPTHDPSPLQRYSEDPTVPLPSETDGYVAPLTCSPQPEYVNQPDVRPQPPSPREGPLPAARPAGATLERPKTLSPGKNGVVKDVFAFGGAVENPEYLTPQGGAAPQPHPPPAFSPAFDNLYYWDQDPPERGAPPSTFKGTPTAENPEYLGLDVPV
From the text: as §1, §2, §3, §4, §5

Each structure is given as a SMILES string. pIC50: −log10 of the molar value.

Chain of EGFR (Epidermal Growth Factor Receptor 1) (P00533 25-1210): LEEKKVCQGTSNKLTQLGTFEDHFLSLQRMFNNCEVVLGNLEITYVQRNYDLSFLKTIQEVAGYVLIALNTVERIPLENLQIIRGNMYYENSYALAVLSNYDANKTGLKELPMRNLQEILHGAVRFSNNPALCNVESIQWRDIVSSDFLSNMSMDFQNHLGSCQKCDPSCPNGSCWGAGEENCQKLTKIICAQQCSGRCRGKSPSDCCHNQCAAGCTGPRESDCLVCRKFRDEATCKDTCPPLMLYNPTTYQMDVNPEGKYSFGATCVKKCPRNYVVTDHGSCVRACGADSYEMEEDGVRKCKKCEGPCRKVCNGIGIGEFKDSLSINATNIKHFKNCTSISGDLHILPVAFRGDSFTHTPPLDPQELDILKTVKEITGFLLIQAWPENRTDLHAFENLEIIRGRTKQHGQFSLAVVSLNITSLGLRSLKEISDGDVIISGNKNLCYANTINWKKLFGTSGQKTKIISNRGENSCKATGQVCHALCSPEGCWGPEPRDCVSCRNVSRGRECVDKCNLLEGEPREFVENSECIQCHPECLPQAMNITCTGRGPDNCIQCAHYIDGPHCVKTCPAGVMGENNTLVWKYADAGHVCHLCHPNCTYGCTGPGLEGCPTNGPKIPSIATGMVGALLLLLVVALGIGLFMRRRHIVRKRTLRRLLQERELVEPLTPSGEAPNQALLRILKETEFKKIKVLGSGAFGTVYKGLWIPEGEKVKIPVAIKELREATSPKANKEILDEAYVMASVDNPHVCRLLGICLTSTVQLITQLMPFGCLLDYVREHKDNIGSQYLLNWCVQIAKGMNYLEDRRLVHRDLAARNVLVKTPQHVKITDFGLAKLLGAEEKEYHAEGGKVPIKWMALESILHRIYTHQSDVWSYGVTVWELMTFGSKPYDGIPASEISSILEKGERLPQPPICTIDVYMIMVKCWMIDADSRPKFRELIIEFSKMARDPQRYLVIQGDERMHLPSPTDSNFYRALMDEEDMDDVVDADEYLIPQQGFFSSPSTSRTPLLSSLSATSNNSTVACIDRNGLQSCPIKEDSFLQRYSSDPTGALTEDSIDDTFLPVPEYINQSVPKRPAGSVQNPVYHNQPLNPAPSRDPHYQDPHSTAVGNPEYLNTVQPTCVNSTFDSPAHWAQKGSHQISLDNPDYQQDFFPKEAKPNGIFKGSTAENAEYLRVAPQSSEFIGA

On to `CCN(CC)Cc1ccc(-c2ccc3ncnc(Nc4ccc(OCc5cccc(F)c5)c(Cl)c4)c3c2)o1` [MS 4], for which the pIC50 in experiment [1] and in experiment [2] was above 5.00 in each case.

Turning to `O=[N+]([O-])c1ccc(CCNCc2ccc(-c3ccc4ncnc(Nc5ccc(OCc6cccc(F)c6)c(Cl)c5)c4c3)o2)cc1` [MS 12, N-(3-chloro-4-((3-fluorobenzyl)oxy)phenyl)-6-(5-(((2-(4-nitrophenyl)ethyl)amino)methyl)-2-furyl)-4-quinazolinamine], the pIC50 in experiment [1] and in experiment [2] was above 5.00 in each case.

As for `COCCCCNCc1ccc(-c2ccc3ncnc(Nc4ccc(OCc5cccc(F)c5)c(Cl)c4)c3c2)o1` [MS10·dimethanesulfonate, N-(3-chloro-4-((3-fluorobenzyl)oxy)phenyl)-6-(5-(((4-methoxybutyl)amino)methyl)-2-furyl)-4-quinazolinamine], the pIC50 in experiment [1] and in experiment [2] was above 5.00 each time.

Turning to `CCNCc1ccc(-c2ccc3ncnc(Nc4ccc(OCc5cccc(F)c5)c(Cl)c4)c3c2)o1` [MS 3, N-(3-chloro-4-((3-fluorobenzyl)oxy)phenyl)-6-(5-((ethylamino)methyl)-2-furyl)-4-quinazolinamine], the pIC50 in experiment [1] and in experiment [2] was above 5.00 in each case.

For `O=C(O)C(Cc1ccccc1)NCc1ccc(-c2ccc3ncnc(Nc4ccc(OCc5cccc(F)c5)c(Cl)c4)c3c2)o1` (centres unmarked) [MS 24, N-(3-chloro-4-((3-fluorobenzyl)oxy)phenyl)-6-(5-((((1-carboxy-2-phenyl)ethyl)amino)methyl)-2-furyl)-4-quinazolinamine], the pIC50 in experiment [1] and in experiment [2] was above 5.00 throughout.

On to `Oc1cc(F)cc(CCNCc2ccc(-c3ccc4ncnc(Nc5ccc(OCc6cccc(F)c6)c(Cl)c5)c4c3)o2)c1` [MS 15, N-(3-chloro-4-((3-fluorobenzyl)oxy)phenyl)-6-(5-(((2-(3-hydroxy-5-fluorophenyl)ethyl)amino)methyl)-2-furyl)-4-quinazolinamine], for which the negative logarithm of the IC50 (pIC50) in experiment [1] and in experiment [2] was above 5.00 throughout.

Turning to `Fc1cccc(COc2ccc(Nc3ncnc4ccc(-c5ccc(CNOCc6ccccc6)o5)cc34)cc2Cl)c1` [MS 19, N-(3-chloro-4-((3-fluorobenzyl)oxy)phenyl)-6-(5-(((benzyloxy)amino)methyl)-2-furyl)-4-quinazolinamine], the pIC50 in experiment [1] and in experiment [2] was above 5.00 in each case.

Regarding `CCCCCCNCc1ccc(-c2ccc3ncnc(Nc4ccc(OCc5cccc(F)c5)c(Cl)c4)c3c2)o1` [MS 2, N-(3-chloro-4-((3-fluorobenzyl)oxy)phenyl)-6-(5-((n-hexylamino)methyl)-2-furyl)-4-quinazolinamine], the pIC50 is above 5.00 in experiment [1] and below 5.00 in experiment [2].

Consider `O=C(O)CNCc1ccc(-c2ccc3ncnc(Nc4ccc(OCc5cccc(F)c5)c(Cl)c4)c3c2)o1` [MS 22, N-(3-chloro-4-((3-fluorobenzyl)oxy)phenyl)-6-(5-(((carboxymethyl)amino)methyl)-2-furyl)-4-quinazolinamine], for which the pIC50 in experiment [1] and in experiment [2] was above 5.00 in each case.

With `COc1cc(CCNCc2ccc(-c3ccc4ncnc(Nc5ccc(OCc6cccc(F)c6)c(Cl)c5)c4c3)o2)cc(OC)c1` [MS 14], the pIC50 in experiment [1] and in experiment [2] was above 5.00 in each case.

Turning to `NCCCC(NCc1ccc(-c2ccc3ncnc(Nc4ccc(F)c(Cl)c4)c3c2)o1)C(=O)O` (centres unmarked) [MS 38, N-(3-chloro-4-fluorophenyl)-6-(5-((((1-carboxy-4-amino)butyl)amino)methyl)-2-furyl)-4-quinazolinamine], in experiment [2], the negative-log IC50 (pIC50) is above 5.00.

Regarding `O=[N+]([O-])c1ccc(CCNCc2ccc(-c3ccc4ncnc(Nc5ccc(F)c(Cl)c5)c4c3)o2)cc1` [MS 40, N-(3-chloro-4-fluorophenyl)-6-(5-(((2-(4-nitrophenyl)ethyl)amino)methyl)-2-furyl)-4-quinazolinamine], the pIC50 in experiment [2] is above 5.00.

For `Fc1cc(Cl)cc(CCNCc2ccc(-c3ccc4ncnc(Nc5ccc(OCc6cccc(F)c6)c(Cl)c5)c4c3)o2)c1` [MS 16, N-(3-chloro-4-((3-fluorobenzyl)oxy)phenyl)-6-(5-(((2-(3-chloro-5-fluorophenyl)ethyl)amino)methyl)-2-furyl)-4-quinazolinamine], the pIC50 is above 5.00 in experiment [1] and below 5.00 in experiment [2].

`NC(=O)CC(NCc1ccc(-c2ccc3ncnc(Nc4ccc(OCc5cccc(F)c5)c(Cl)c4)c3c2)o1)C(=O)O` (centres unmarked) [MS 30, N-(3-chloro-4-((3-fluorobenzyl)oxy)phenyl)-6-(5-((((1-carboxy-2-aminoformyl)ethyl)amino)methyl)-2-furyl)-4-quinazolinamine]: the pIC50 in experiment [1] and in experiment [2] was above 5.00 each time.

As to `Oc1ccc(CCNCc2ccc(-c3ccc4ncnc(Nc5ccc(OCc6cccc(F)c6)c(Cl)c5)c4c3)o2)cc1` [MS 13, N-(3-chloro-4-((3-fluorobenzyl)oxy)phenyl)-6-(5-(((2-(4-hydroxyphenyl)ethyl)amino)methyl)-2-furyl)-4-quinazolinamine], the pIC50 in experiment [1] and in experiment [2] was above 5.00 each time.

As for `O=C(O)C(CS)NCc1ccc(-c2ccc3ncnc(Nc4ccc(OCc5cccc(F)c5)c(Cl)c4)c3c2)o1` (centres unmarked) [MS 29], the pIC50 in experiment [1] and in experiment [2] was above 5.00 each time.

As to `Fc1cccc(COc2ccc(Nc3ncnc4ccc(-c5ccc(CNCc6cccc(Cl)c6)o5)cc34)cc2Cl)c1` [MS 11, N-(3-chloro-4-((3-fluorobenzyl)oxy)phenyl)-6-(5-(((3-chlorobenzyl)amino)methyl)-2-furyl)-4-quinazolinamine], the pIC50 in experiment [1] was above 5.00; in experiment [2] it was below 5.00.

Take `O=C(O)C(CO)NCc1ccc(-c2ccc3ncnc(Nc4ccc(OCc5cccc(F)c5)c(Cl)c4)c3c2)o1` (centres unmarked) [MS 28, N-(3-chloro-4-((3-fluorobenzyl)oxy)phenyl)-6-(5-((((1-carboxy-2-hydroxy)ethyl)amino)methyl)-2-furyl)-4-quinazolinamine]: the negative logarithm of the IC50 (pIC50) in experiment [1] and in experiment [2] was above 5.00 each time.

On to `OCCCCC(O)CNCc1ccc(-c2ccc3ncnc(Nc4ccc(OCc5cccc(F)c5)c(Cl)c4)c3c2)o1` (centres unmarked) [MS 17, N-(3-chloro-4-((3-fluorobenzyl)oxy)phenyl)-6-(5-(((2,6-dihydroxyhexyl)amino)methyl)-2-furyl)-4-quinazolinamine], for which the pIC50 in experiment [1] and in experiment [2] was above 5.00 each time.

For `NC(CCCNCc1ccc(-c2ccc3ncnc(Nc4ccc(F)c(Cl)c4)c3c2)o1)C(=O)O` (centres unmarked) [MS 37, N-(3-chloro-4-fluorophenyl)-6-(5-((((4-carboxy-4-amino)butyl)amino)methyl)-2-furyl)-4-quinazolinamine], the pIC50 in experiment [2] was above 5.00.

On to `NC1CCCC(NCc2ccc(-c3ccc4ncnc(Nc5ccc(OCc6cccc(F)c6)c(Cl)c5)c4c3)o2)C1` (centres unmarked) [MS 21, N-(3-chloro-4-((3-fluorobenzyl)oxy)phenyl)-6-(5-(((3-aminocyclohexyl)amino)methyl)-2-furyl)-4-quinazolinamine], for which the pIC50 in experiment [1] and in experiment [2] was above 5.00 each time.

Turning to `NC(CCCNCc1ccc(-c2ccc3ncnc(Nc4ccc(OCc5cccc(F)c5)c(Cl)c4)c3c2)o1)C(=O)O` (centres unmarked) [MS 32, N-(3-chloro-4-((3-fluorobenzyl)oxy)phenyl)-6-(5-((((4-carboxy-4-amino)butyl)amino)methyl)-2-furyl)-4-quinazolinamine], the pIC50 in experiment [1] and in experiment [2] was above 5.00 throughout.

As a reminder, the pIC50 is the IC50 on a negative log10 scale, so that one unit is a factor of ten.

For the origin of these results see US9499530B2 (HANGZHOU MINSHENG INSTITUTES FOR PHARMA RESEARCH, priority 2011, dated 2016).
